Source: patent US5089623A, “Certain imidate insecticides” (Imperial Chemical Industries Plc, priority 1990, dated 1992)

Assays:
Type in all cases: in vivo
[1] = system: Cabbage Looper [Trichoplusia ni (Hubner)]; experiment: Cabbage looper test (CL); conditions: second-instar larvae, 3-5 days, percent in solution
[2] = system: Rice water weevil [Lissorhoptrus oryzophilus (Kuschel)]; experiment: Rice water weevil test (RWW); conditions: per weevil, topical, female adults, 48 hours
Experimental: (§1) The compounds in Tables 1 and 2 above were tested for insecticidal activity using the following testing procedures. LC50 values, based on the results of these tests and calculated according to dosage-mortality curves, are expressed in Table 3.
Rice water weevil [Lissorhoptrus oryzophilus (Kuschel)]
Test compounds were diluted in acetone. Droplets (1 ul) of test solutions were applied to the ventral abdomens of ten female adult weevils. The treated weevils were placed in containers with wet cotton balls and rice foliage. The containers were covered and kept at a temperature of about 25° C. Mortality was recorded after 48 hours. […] The LC50 values are expressed below in Table 3 under the heading "RWW" in terms of μg of test compound per weevil.

[3] = system: Tobacco Budworm [Heliothis virescens (Fabricius)] eggs; experiment: Tobacco budworm egg test (TBW-E); conditions: percent in solution
[4] = system: Housefly [Musca domestica]; experiment: Housefly insecticidal test (HF); conditions: per 25 female houseflies, 48 hours
[5] = system: Maize weevil [Sitophilus Zeamais (Motschulsky)]; experiment: Maize weevil test (MW); conditions: adult weevils, treated corn seeds, 48 hours, percent in solution
Outline: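 Adult weevils (10) were placed with four corn seeds that had been dipped 2-3 s in compound dissolved in 50:50 acetone:water, then dried, and held at about 25° C. Mortality was scored at 48 h. LC50 was taken from dosage-mortality curves and expressed as percent compound in solution, from a 0.01% top concentration.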

[6] = system: Beet Armyworm (Spodoptera exigua); experiment: Beet armyworm test (BAW); conditions: second-instar larvae, five days, percent in solution
Experimental: as §1
Beet Armyworm (Spodoptera exigua)
Test compounds were diluted in a 50-50 acetone-water solution. Young leaves of sugar beets (Beta vulgaris) were immersed in the test solutions for 2-3 seconds and placed on a wire screen to dry. The dried leaves were placed in petri dishes containing a moistened filter paper and infested with five second-instar beet armyworm larvae. The dishes were placed in a high humidity chamber. Mortality of the larvae was recorded five days later. Test concentrations ranged from 0.1% downward. The LC-50 values are expressed below in Table 3 under the heading "BAW" in terms of percent of the test compound in solution.

[7] = system: Tobacco Budworm [Heliothis virescens (Fabricius)]; experiment: Tobacco budworm contact test (TBW-C); conditions: second-instar larvae, 5 days, percent in solution
Outline: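 Cotton cotyledons dipped 2–3 s in compound in 50:50 acetone–water, dried, then infested with 5 second-instar larvae and held 5 days at high humidity before scoring mortality.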

[8] = system: Aster Leafhopper [Macrosteles fascifrens (Stal)]; experiment: Aster leafhopper test (LH); conditions: adults/nymphs, 48 hours, percent in solution

For CC(C)C(=Nc1ccc(F)c(Br)c1)OCc1cccc(Oc2ccccc2)c1 [Compound 254], the “LC50 CL” value [1] was 0.001%, the “LC50 RWW” value [2] was > 2.5 µg and the “LC50 TBW E” value [3] was 0.026%. The “LC50 HF” value [4] was 6 µg.
In the case of CC(C)C(=Nc1ccc(C(F)(F)F)cc1)OCc1ccc(F)c(Oc2ccc(F)cc2)c1 [Compound 314], the “LC50 CL” value [1] was 0.00005%, the “LC50 RWW” value [2] was 0.11 µg and the “LC50 TBW E” value [3] was 0.012%. For the same compound, the “LC50 HF” value [4] was 21 µg.
In the case of CC(C)C(=Nc1ccc(Br)c(Cl)c1)OCc1cccc(Oc2ccc(Cl)cc2)c1 [Compound 380], the “LC50 CL” value [1] was > 0.1%, the “LC50 RWW” value [2] was > 2.5 µg and the “LC50 TBW E” value [3] was > 0.1%. For the same compound, the “LC50 MW” value [5] was > 0.01% and the “LC50 HF” value [4] was > 100 µg.
For CC(C)C(=Nc1ccc(Cl)c(Cl)c1)OCc1ccc(F)c(Oc2ccccc2)c1 [Compound 376], the “LC50 CL” value [1] was 0.00037%, the “LC50 RWW” value [2] was 0.1 µg and the “LC50 TBW E” value [3] was 0.02%. For the same compound, the “LC50 MW” value [5] was 0.0061% and the “LC50 HF” value [4] was 17 µg.
CC(C)C(=Nc1ccc(Cl)cc1)OCc1ccc(F)c(Oc2ccc(Cl)cc2)c1 [Compound 391] was tested, and the “LC50 CL” value [1] was 0.00029%, the “LC50 RWW” value [2] was > 2.5 µg and the “LC50 TBW E” value [3] was 0.035%. The “LC50 HF” value [4] was < 100 µg.
With CC(C)C(=Nc1ccc(Br)c(Cl)c1)OCc1ccc(F)c(Oc2ccc(F)cc2)c1 [Compound 382] the “LC50 CL” value [1] was 0.00029%, the “LC50 RWW” value [2] was > 2.5 µg and the “LC50 TBW E” value [3] was 0.027%. The “LC50 MW” value [5] was > 0.01% and the “LC50 HF” value [4] was < 100 µg.
With CCOc1ccc(N=C(OCc2ccc(F)c(Oc3ccccc3)c2)C(C)C)cc1Cl [Compound 370] the “LC50 CL” value [1] was 0.00034%, the “LC50 RWW” value [2] was > 2.5 µg and the “LC50 TBW E” value [3] was 0.02%. For the same compound, the “LC50 MW” value [5] was > 0.01% and the “LC50 HF” value [4] was < 100 µg.
In the case of Fc1ccc(N=C(OCc2cccc(Oc3ccccc3)c2)C2CC2)cc1Cl [Compound 113], the “LC50 CL” value [1] was 0.005%, the “LC50 RWW” value [2] was > 2.5 µg and the “LC50 TBW E” value [3] was 0.1%. For the same compound, the “LC50 HF” value [4] was 15 µg.
In the case of CC(Cl)(Cl)C(=Nc1ccc(Cl)cc1)OCc1cccc(Oc2ccccc2)c1 [Compound 3], the “LC50 BAW” value [6] was 0.015%, the “LC50 TBW C” value [7] was 0.009% and the “LC50 CL” value [1] was 0.012%. For the same compound, the “LC50 TBW E” value [3] was > 0.1%, the “LC50 MW” value [5] was > 0.01% and the “LC50 HF” value [4] was 50 µg. For the same compound, the “LC50 LH” value [8] was > 0.05%.
Clc1cccc(N=C(OCc2cccc(Oc3ccccc3)c2)C(Cl)Cl)c1 [Compound 1] was tested, and the “LC50 BAW” value [6] was 0.009%, the “LC50 TBW C” value [7] was 0.06% and the “LC50 CL” value [1] was 0.005%. The “LC50 TBW E” value [3] was 0.05%, the “LC50 MW” value [5] was > 0.01% and the “LC50 HF” value [4] was 4.8 µg. For the same compound, the “LC50 LH” value [8] was > 0.05%.
For CC(C)C(=Nc1cccc(I)c1)OCc1ccc(F)c(Oc2ccc(F)cc2)c1 [Compound 279], the “LC50 BAW” value [6] was 0.0025%, the “LC50 TBW C” value [7] was 0.007% and the “LC50 CL” value [1] was 0.00008%. For the same compound, the “LC50 TBW E” value [3] was 0.016%, the “LC50 MW” value [5] was > 0.01% and the “LC50 HF” value [4] was 4 µg. The “LC50 LH” value [8] was 0.0003%.
With CC(=Nc1ccccc1)OCc1cccc(Oc2ccccc2)c1 [Compound 42] the “LC50 BAW” value [6] was > 0.1%, the “LC50 TBW C” value [7] was > 0.1% and the “LC50 CL” value [1] was > 0.1%. The “LC50 TBW E” value [3] was > 0.1%, the “LC50 MW” value [5] was > 0.01% and the “LC50 HF” value [4] was 45 µg. The “LC50 LH” value [8] was > 0.05%.
CC(C)C(=Nc1ccc(OC(F)(F)F)cc1)OCc1ccc(F)c(Oc2ccc(F)c(F)c2)c1 [Compound 347] was tested, and the “LC50 BAW” value [6] was 0.00075%, the “LC50 TBW C” value [7] was 0.0001% and the “LC50 CL” value [1] was 0.000075%. The “LC50 TBW E” value [3] was > 0.1%, the “LC50 MW” value [5] was > 0.01% and the “LC50 HF” value [4] was 30 µg. The “LC50 LH” value [8] was 0.0002%.
In the case of CC(C)(F)C(=Nc1ccc(F)c(Cl)c1)OCc1ccc(F)c(Oc2ccc(F)cc2)c1 [Compound 310], the “LC50 CL” value [1] was 0.00006%, the “LC50 RWW” value [2] was > 2.5 µg and the “LC50 TBW E” value [3] was 0.015%. For the same compound, the “LC50 HF” value [4] was 4.5 µg.
For ClCC(=Nc1ccc(Cl)cc1)OCc1cccc(Oc2ccccc2)c1 [Compound 31], the “LC50 BAW” value [6] was 0.08%, the “LC50 TBW C” value [7] was 0.01% and the “LC50 CL” value [1] was 0.05%. For the same compound, the “LC50 TBW E” value [3] was > 0.1%, the “LC50 MW” value [5] was > 0.01% and the “LC50 HF” value [4] was > 100 µg. The “LC50 LH” value [8] was > 0.05%.
